Source: patent publication US7365064B2, “Benzoxazine and benzothiazine derivatives and pharmaceutical compositions containing them” (Dr. Reddy's Laboratories Limited, priority 2001, dated 2008)
Counter-ions that a name gives are not always drawn.

How the values were obtained:
hPPARγ = target: T1, hPPARγ (Homo sapiens, UniProt P37231); assay: Determination of hPPARγ activity (GAL4 fusion luciferase reporter in HEK-293 cells); assay type: cell-based; details: compound concentration 1 μM
T1 construct: expressed in transfected cells; host or cells: HEK-293
T1 sequence (P37231 238-503 limits assumed): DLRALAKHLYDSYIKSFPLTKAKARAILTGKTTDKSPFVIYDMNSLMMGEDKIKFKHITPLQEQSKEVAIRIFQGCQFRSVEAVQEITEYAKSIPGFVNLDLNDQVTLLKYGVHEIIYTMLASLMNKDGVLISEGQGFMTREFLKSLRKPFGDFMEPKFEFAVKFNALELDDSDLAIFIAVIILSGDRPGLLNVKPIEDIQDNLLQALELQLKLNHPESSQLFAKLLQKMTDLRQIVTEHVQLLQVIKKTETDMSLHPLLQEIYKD
Protocol: b) Determination of hPPARγ Activity
Ligand binding domain of hPPARγ is fused to DNA binding domain of Yeast transcription factor GAL4 in eucaryotic expression vector. Using lipofectamine (Gibco BRL, USA) as transfecting reagent HEK-293 cells are transfected with this plasmid and a reporter plasmid harboring the luciferase gene driven by a GAL4 specific promoter. Compound can be added at 1 μM concentration after 48 hrs of transfection and incubated overnight Luciferase activity as a function of drug binding/activation capacity of PPARγ1 will be measured using Packard Luclite kit (Packard, USA) in Packard Top Cout (Ivan Sadowski, Brendan Bell, Peter Broag and Melvyn Hollis. Gene. 1992. 118: 137-141; Guide to Eukaryotic Transfections with Cationic Lipid Reagents. Life Technologies, GIBCO BRL, USA).

[1] = system: hypercholesterolemic Sprague Dawley rats; assay: Plasma triglyceride and cholesterol lowering activity in hypercholesterolemic rat models; assay type: in vivo; details: 10 mg/kg orally for 3 days; for HDL (%) ↑: increase; for Total Cholesterol (%) ↓ / Triglyceride (%) ↓ / LDL (%) ↓ / VLDL (%) ↓: reduction; for LDL (%) ↓: LDL calculated from total cholesterol; for LDL (%) ↓ / VLDL (%) ↓: HDL and triglyceride; for VLDL (%) ↓: VLDL calculated from total cholesterol
Protocol: b) Plasma Triglyceride and Cholesterol Lowering Activity in Hypercholesterolemic Rat Models
Male Sprague Dawley rats (NIN stock) were bred in DRF animal house. Animals were maintained under 12 hour light and dark cycle at 25±1° C. Rats of 180-200 gram body weight range were used for the experiment. Animals are made hypercholesterolemic by feeding 2% cholesterol and 1% sodium cholate mixed with standard laboratory chow [National Institute of Nutrition (NIN), Hyderabad, India] […] for 6 days. Throughout the experimental period the animals were maintained on the same diet (Petit, D., Bonnefis, M. T., Rey, C and Infante, R. Effects of ciprofibrate on liver lipids and lipoprotein synthesis in normo- and hyperlipidemic rats. Atherosclerosis. 1988. 74 : 215-225).
The test compounds can be administered orally at a dose 0.1 to 30 mg/kg/day for 3 days. Control group was treated with vehicle alone (0.25% Carboxymethylcellulose; dose 10 ml/kg).
The blood samples were collected in fed state 1 hour after drug administration on 0 and 3 day of compound treatment. The blood was collected from the retro-orbital sinus through heparinsed capillary in EDTA containing tubes. After centrifugation, plasma sample was separated for total cholesterol, HDL and triglyceride estimations. Measurement of plasma, triglyceride, total cholesterol and HDL are were done using commercial kits (Dr. Reddy's Laboratory, Diagnostic Division, India). LDL and VLDL cholesterol were calculated from the data obtained for total cholesterol, HDL and triglyceride. The reduction of various parameters examined are calculated according to the formula.
(§1) 1. Percent reduction in Blood sugar/triglycerides/total cholesterol will be calculated according to the formula:
(§2) [formula] • OC=Zero day control group value • OT=Zero day treated group value • TC=Test day control group value • TT=Test day treated group value
2. LDL and VLDL cholesterol levels will be calculated according to the formula:
[formula] VLDL cholesterol in mg/dl=[Total cholesterol−HDL cholesterol−LDL cholesterol]mg/dl.

Swiss albino mice = assay: Plasma triglyceride and total cholesterol lowering activity in Swiss albino mice and guinea pigs; assay type: in vivo; details: 10 mg/kg orally for 6 days; species not named
Protocol: c) Plasma Triglyceride and Total Cholesterol Lowering Activity in Swiss Albino Mice and Gunie Pigs
Male Swiss albino mice (SAM) and male Guinea pigs were obtained from NIN and housed in DRF animal house. All these animals are maintained under 12 hour light and dark cycle at 25±1° C. Animals were given standard laboratory chow (NIN, Hyderabad, India) and water, ad libitum. SAM of 20-25 g body weight range and Guinea pigs of 500-760 g body weight range are used (Oliver, P., Plancke, M. O., Marzin, D., Clavey, V., Sauzieres, J and Fruchatt, J. C. Effects of fenofibrate, gemfibrozil and nicotinic acid on plasma lipoprotein levels in normal and hyperlipidemic mice. Atherosclerosis. 1988. 70 : 107-114).
The test compounds were administered orally to Swiss albino mice at 0.3 to 30 mg/kg/day dose for 6 days. Control mice are treated with vehicle (0.25% Carboxymethylcellulose; dose 10 ml/kg). The test compounds are administered orally to Guinea pigs at 0.3 to 30 mg/kg/day dose for 6 days. Control animals are treated with vehicle (0.25% Carboxymethylcellulose; dose 5 ml/kg).
The blood samples were collected in fed state 1 hour after drug administration on 0 and 6 day of treatment The blood was collected from the retro-orbital sinus through heparinised capillary in EDTA containing tubes. After centrifugation, plasma sample was separated for triglyceride and total cholesterol (Wieland, O. Methods of Enzymatic analysis. Bergermeyer, H. O., Ed., 1963. 211-214; Trinder, P. Ann. Clin. Biochem. 1969. 6: 24-27). Measurement of plasma triglyceride were done using commercial kits (Dr. Reddy's Diagnostic Division, Hyderabad, India).
as §1, §2

C57BL/KsJ-db/db mice = assay: Blood sugar and triglyceride lowering in db/db mice; assay type: in vivo; details: 3 mg/kg oral gavage daily for 6 days
From the text: Mutation in colonies of laboratory animals and different sensitivities to dietary regimens have made the development of animal models with non-insulin dependent diabetes and hyperlipidemia associated with obesity and insulin resistance possible. Genetic models such as db/db and ob/ob (Diabetes, (1982) 31(1): 1-6) mice and zucker fa/fa rats have been developed by the various laboratories for understanding the pathophysiology of disease and testing the efficacy of new antidiabetic compounds (Diabetes, (1983) 32: 830-838; Annu. Rep. Sankyo Res. Lab. (1994). 46: 1-57). The homozygous animals, C57 BL/KsJ-db/db mice developed by Jackson Laboratory, US, are obese, hyperglycemic, hyperinsulinemic and insulin resistant (J. Clin. Invest., (1990) 85 : 962-967), whereas heterozygous are lean and normoglycemic. In db/db model, mouse progressively develops insulinopenia with age, a feature commonly observed in late stages of human type II diabetes when blood sugar levels are insufficiently controlled. The state of pancreas and its course vary according to the models. Since this model resembles that of type II diabetes mellitus, the compounds of the present invention will be tested for blood sugar and triglycerides lowering activities.
Male C57BL/KsJ-db/db mice of 8 to 14 weeks age, having body weight range of 35 to 60 grams, bred at Dr. Reddy's Research Foundation (DRF) animal house, were used in the experiment. The mice are provided with standard feed (National Institute of Nutrition (NIN), Hyderabad, India) and acidified water, ad libitum. The animals having more than 350 mg/dl blood sugar will be used for testing. The number of animals in each group was 4.
Test compounds are suspended on 0.25% carboxymethyl cellulose and administered to test group at a dose of 0.1 mg to 30 mg/kg through oral gavage daily for 6 days. The control group receives vehicle (dose 10 ml/kg). On 6th day the blood samples will be collected one hour after administration of test compounds/vehicle for assessing the biological activity.
The random blood sugar and triglyceride levels can be measured by collecting blood (100 μl) through orbital sinus, using heparinised capillary in tubes containing EDTA which was centrifuged to obtain plasma. The plasma glucose and triglyceride levels can be measured spectrometrically, by glucose oxidase and glycerol-3-PO4 oxidase/peroxidse enzyme (Dr. Reddy's Lab. Diagnostic Division Kits, Hyderabad, India) methods respectively.
The blood sugar and triglycerides lowering activities of the test compound are calculated according to the formula.
1. Percent reduction in Blood sugar/triglycerides/total cholesterol will be calculated according to the formula: […]

hPPARα = target: T2, hPPARα (Homo sapiens, UniProt Q07869); assay: Determination of hPPARα activity (GAL4 fusion luciferase reporter in HEK-293 cells); assay type: cell-based; details: compound concentration 50 μM
T2 construct: expressed in transfected cells; host or cells: HEK-293
T2 sequence (Q07869 239-466 limits assumed): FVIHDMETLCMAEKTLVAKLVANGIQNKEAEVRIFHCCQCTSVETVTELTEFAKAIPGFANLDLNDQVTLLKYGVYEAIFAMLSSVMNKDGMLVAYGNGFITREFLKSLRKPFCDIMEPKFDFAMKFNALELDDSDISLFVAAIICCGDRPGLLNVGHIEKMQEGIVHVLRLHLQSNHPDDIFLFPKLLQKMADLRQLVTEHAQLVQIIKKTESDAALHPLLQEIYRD
Protocol: a) Determination of hPPARα Activity
Ligand binding domain of hPPARα was fused to DNA binding domain of Yeast transcription factor Gal 4 in eucaryotic expression vector. Using superfect (Qiagen, Germany) as transfecting reagent HEK-293 cells are transfected with this plasmid and a reporter plasmid harboring the luciferace gene driven by a GAL4 specific promoter. Compound can be added at different concentrations after 42 hrs of transfection and incubated overnight. Luiciferase activity as a function of compound binding/activation capacity of PPARα will be measured using Packard Luclite kit (Packard, USA) in Top Count (Ivan Sadowsi, Brendan Bell, Peter Broag and Melvyn Hollis. Gene. 1992. 118: 137-141; Superfect Transfetion Reagent Handbook February 1997. Qiagen, Germany.

## CCOC(Cc1ccc(NCCCN2CCOc3ccccc32)cc1)C(=O)O (stereo not shown) [Example 3, 3-[4-{3-(3,4-Dihydro-2H-benzo[b][1,4]oxazin-4-yl)propylamino}phenyl]-2-ethoxypropanoic acid arginine salt]
hPPARγ
  PPARγ: 3.0
[1]
  HDL (%) ↑: 254%
  Total Cholesterol (%) ↓: 69%
  Triglyceride (%) ↓: 77%
  LDL (%) ↓: 80%
  VLDL (%) ↓: 77%
Swiss albino mice
  Triglyceride Lowering (%): 70%
C57BL/KsJ-db/db mice
  Reduction in Blood Glucose Level (%): 33%
  Triglyceride Lowering (%): 29%
hPPARα
  PPARα: 4.7

## CCCCCCCN(CCN1C(=O)COc2ccccc21)c1ccc(CC(OCC)C(=O)O)cc1 (stereo not shown) [Example 6, 3-[4-N-Heptyl-N-{2-(3-oxo-3,4-dihydro-2H-benzo[b][1,4]oxazin-4-yl)ethylamino}phenyl]-2-ethoxypropanoic acid arginine salt]
Swiss albino mice
  Triglyceride Lowering (%): 27%

## CCCCCCCN(CC(=O)N1CCOc2ccccc21)Cc1ccc(CC(OCC)C(=O)O)cc1 (stereo not shown) [Example 9, 2-Ethoxy-3-[4-{N-heptyl-N-(2-(3,4-dihydro-2H-benzo[b]oxazin-4-yl)-2-oxoethyl)aminomethyl}phenyl]propanoic acid arginine salt]
hPPARγ
  PPARγ: 6.2
hPPARα
  PPARα: 4.6

## CCOC(Cc1cccc(NCCCN2CCOc3ccccc32)c1)C(=O)O (stereo not shown) [Example 15, 3-[3-{3-(3,4-Dihydro-2H-benzo[b][1,4]oxazin-4-yl)propylamino}phenyl]-2-ethoxypropanoic acid arginine salt]
Swiss albino mice
  Triglyceride Lowering (%): 43%

## CCOC(Cc1ccc(NCCCN2CCOc3cc(F)ccc32)cc1)C(=O)O (stereo not shown) [Example 18, 3-[4-{3-(7-Fluoro-3,4-dihydro-2H-benzo[b][1,4]oxazin-4-yl)propylamino}phenyl]-2-ethoxypropanoic acid arginine salt]
hPPARγ
  PPARγ: 1.2
[1]
  HDL (%) ↑: 260%
  Total Cholesterol (%) ↓: 64%
  Triglyceride (%) ↓: 77%
  LDL (%) ↓: 74%
  VLDL (%) ↓: 77%
Swiss albino mice
  Triglyceride Lowering (%): 61%
C57BL/KsJ-db/db mice
  Reduction in Blood Glucose Level (%): 16%
  Triglyceride Lowering (%): 35%
hPPARα
  PPARα: 4.4

## CCOC(Cc1ccc(NCc2ccc(OCCCN3CCOc4ccccc43)cc2)cc1)C(=O)O (stereo not shown) [Example 23, 2-Ethoxy-3-[4-{4-(3-(3,4-dihydro-2H-benzo[b][1,4]oxazin-4-yl)propyloxy)benzyl}aminophehyl]propanoic acid arginine salt]
hPPARγ
  PPARγ: 4.4
hPPARα
  PPARα: 4.2

## CCOC(Cc1ccc(NCCCN2CCSc3ccccc32)cc1)C(=O)O (stereo not shown) [Example 27, 2-Ethoxy-3-[4-{3-3,4-dihydro-2H-benzo[b][1,4]thiazin-4-yl)propylamino}phenyl]propanoic acid arginine salt]
hPPARγ
  PPARγ: 3.5
hPPARα
  PPARα: 4.3
